Measured values taken from patent publication US8383637B2, “2-amino-quinazoline derivatives useful as inhibitors of β-secretase (BACE)” (Jansssen Pharmaceutica N.V., priority 2004, dated 2013).

Target: T1, β-secretase(BACE) (Homo sapiens, UniProt P56817)
T1 construct: purchased Panvera
Assay: BACE FS1% Inhibition Assay
Type: biochemical
Conditions: FS1 substrate; for % Inhibition (FS) 10 μM: 10 μM test compound
Summary of the method: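 Human BACE (4 μg/mL working solution) preincubated 20 min at room temperature with compound, then FS1 substrate (300 μg/mL working solution) added and incubated 1 h at room temperature. Percent inhibition calculated at each compound concentration against blank and vehicle controls.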

T1 sequence (P56817 46-501): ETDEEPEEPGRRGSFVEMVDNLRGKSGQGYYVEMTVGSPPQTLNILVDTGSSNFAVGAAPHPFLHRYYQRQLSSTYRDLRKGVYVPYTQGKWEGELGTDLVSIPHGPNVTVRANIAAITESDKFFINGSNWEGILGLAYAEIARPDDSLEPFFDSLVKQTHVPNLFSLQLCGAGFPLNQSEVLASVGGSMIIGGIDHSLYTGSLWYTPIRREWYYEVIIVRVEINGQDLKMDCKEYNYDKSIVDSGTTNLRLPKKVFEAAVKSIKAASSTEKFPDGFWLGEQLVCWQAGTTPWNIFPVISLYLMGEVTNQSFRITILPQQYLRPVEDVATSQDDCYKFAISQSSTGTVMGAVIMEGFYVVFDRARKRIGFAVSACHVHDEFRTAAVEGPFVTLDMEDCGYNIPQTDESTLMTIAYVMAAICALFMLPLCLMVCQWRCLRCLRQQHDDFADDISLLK

% Inhibition (FS) 0.3 μM (0.3 μM test compound) [%] | % Inhibition (FS) 1 μM (1 μM test compound) [%] | % Inhibition (FS) 3 μM (3 μM test compound) [%] | % Inhibition (FS) 10 μM [%] | % Inhibition (FS) (0.3 μM test compound) [%] | % Inhibition (FS) (1 μM test compound) [%] | % Inhibition (FS) (3 μM test compound) [%] | SMILES
<30 | <30 | 58 |  |  |  |  | CCCC(CCC)C(=O)N1CCC(N2Cc3cc(Oc4ccccc4)ccc3N=C2N)CC1 [Compound 523]
 |  | <30 | 71 |  |  |  | NC1=Nc2ccc(Oc3ccccc3)cc2CN1C1c2ccccc2-c2c(C(=O)N(C3CCCCC3)C3CCCCC3)cccc21 (stereo not drawn) [Compound 147]
 |  | <30 | 39 |  |  |  | COc1ccc2c(c1)C(CC(=O)N(C)C1CCCCC1)CC2N1Cc2cc(Oc3ccccc3)ccc2N=C1N (stereo not drawn) [Compound 146]
36 | 31 | <30 |  |  |  |  | CC(C)CCC(=O)N1CCCC(N2Cc3cc(Oc4ccccc4)ccc3N=C2N)C1 (stereo not drawn) [Compound 613]
<30 | <30 | <30 |  |  |  |  | C[C@@H](CNC(=O)C1CCCCC1)N1Cc2cc(Oc3ccccc3)ccc2N=C1N [Compound 486]
51 | 86 | 101 |  |  |  |  | CC(C)CC(=O)NCCN1Cc2cc(Oc3ccccc3)ccc2N=C1N [Compound 190]
106 | 115 | 128 |  |  |  |  | COc1ccccc1-c1ccc2c(c1)CN([C@@H](CCC(=O)N(C)C1CCCCC1)C1CCCCC1)C(N)=N2 [Compound 506]
 |  |  |  | <30 | 50 | 87 | NC1=Nc2ccc(-c3ccccc3F)cc2CN1CCNC(=O)C1CCOCC1 [Compound 687]
<30 | <30 | 39 |  |  |  |  | CC1CCC(N(C(=O)c2cccc(CN3Cc4cc(Oc5ccccc5)ccc4N=C3N)c2)C2CCC(C)CC2)CC1 (stereo not drawn) [Compound 187]
<30 | <30 | <30 |  |  |  |  | CC(C)Oc1ccc2c(c1)CN(Cc1cccc(C(=O)N(C)C3CCCCC3)c1)C(N)=N2 [Compound 519]
<30 | <30 | 46 |  |  |  |  | CC(C)Oc1ccccc1Oc1ccc2c(c1)CN(Cc1cccc(C(=O)N(C)C3CCCCC3)c1)C(N)=N2 [Compound 478]
<30 | <30 | 51 |  |  |  |  | NC1=Nc2ccc(Oc3ccccc3)cc2CN1CC1CCN(C(=O)C23CC4CC(CC(C4)C2)C3)CC1 [Compound 527]
74 | 103 | 115 |  |  |  |  | NC1=Nc2ccc(Oc3ccccc3)cc2CN1C(CNC(=O)C12CC3CC(CC(C3)C1)C2)C1CCCCC1 (stereo not drawn) [Compound 312]
 |  |  |  | 33 | <30 | <30 | CC(C)(C)C(=O)NCCN1Cc2cc(-c3ccc4ccccc4c3)ccc2N=C1N [Compound 667]
<30 | <30 | <30 |  |  |  |  | CN(CCN1Cc2cc(Oc3ccccc3)ccc2N=C1N)C1CCCCC1 [Compound 429]
63 | 86 | 105 |  |  |  |  | Cc1ccccc1-c1ccc2c(c1)CN(CCNC(=O)C(C)(C)C)C(N)=N2 [Compound 660]
 |  |  |  | <30 | 68 | 126 | CN(C(=O)CC[C@@H](C1CCCCC1)N1Cc2cc(Oc3ccccc3)ccc2N=C1N)C1CCC2(CC1)OCCO2 [Compound 710]
<30 | <30 | 49 |  |  |  |  | CC(C)[C@@H](CNC(=O)C12CC3CC(CC(C3)C1)C2)N1Cc2cc(Oc3ccccc3)ccc2N=C1N [Compound 553]
<30 | <30 | <30 |  |  |  |  | CC(=O)Nc1ccc(C(=O)NCCN2Cc3cc(-c4ccccc4)ccc3N=C2N)cc1 [Compound 591]
 |  |  |  | <30 | <30 | 63 | COc1ccccc1-c1ccc2c(c1)CN(CCNC(=O)C1CCOCC1)C(N)=N2 [Compound 697]
74 | 92 | 110 |  |  |  |  | NC1=Nc2ccc(-c3ccccc3F)cc2CN1CCNC(=O)C1CCCC1 [Compound 643]
<30 | <30 | 32 |  |  |  |  | C=CCc1cccc(OC)c1Oc1ccc2c(c1)CN(Cc1cccc(C(=O)N(C)C3CCCCC3)c1)C(N)=N2 [Compound 481]
 |  | 68 | 117 |  |  |  | CCCC(CCCC(=O)NC1CCCCC1)N1Cc2cc(Oc3ccccc3)ccc2N=C1N (stereo not drawn) [Compound 91]
<30 | <30 | <30 |  |  |  |  | NC(=O)c1ccccc1-c1ccc2c(c1)CN(CCNC(=O)C1CCCCC1)C(N)=N2 [Compound 543]

% Inhibition (FS) 0.3 μM (0.3 μM test compound) [%] | % Inhibition (FS) 1 μM (1 μM test compound) [%] | % Inhibition (FS) 3 μM (3 μM test compound) [%] | % Inhibition (FS) 10 μM [%] | % Inhibition (FS) (0.3 μM test compound) [%] | % Inhibition (FS) (1 μM test compound) [%] | % Inhibition (FS) (3 μM test compound) [%] | SMILES
 |  |  |  | <30 | 36 | 85 | COc1cccc(F)c1-c1ccc2c(c1)CN(CCNC(=O)C1CCC(C(F)(F)F)CC1)C(N)=N2 (stereo not drawn) [Compound 700]
67 | 57 | 91 |  |  |  |  | CCCC(=O)NCCN1Cc2cc(-c3ccccc3F)ccc2N=C1N [Compound 645]
<30 | <30 | 43 |  |  |  |  | CCCc1cccc(C)c1Oc1ccc2c(c1)CN(Cc1cccc(C(=O)N(C)C3CCCCC3)c1)C(N)=N2 [Compound 482]
 |  |  |  | <30 | <30 | <30 | NC1=Nc2ccc(-c3cnc4ccccc4c3)cc2CN1CCNC(=O)C12CC3CC(CC(C3)C1)C2 [Compound 672]
 |  |  |  | <30 | <30 | <30 | COC1CCCC(C(=O)NCCN2Cc3cc(C4=CCCC4)ccc3N=C2N)C1 (stereo not drawn) [Compound 706]
<30 | <30 | <30 |  |  |  |  | NC1=Nc2ccc(Oc3ccccc3)cc2CN1CCNC(=O)c1ccc(-c2ccccc2)cc1 [Compound 195]
 |  |  |  | <30 | 62 | 111 | COC(=O)Cc1cccc(CN(C)C(=O)CCC(C2CCCCC2)N2Cc3cc(Oc4ccccc4)ccc3N=C2N)c1 (stereo not drawn) [Compound 775]
<30 | <30 | 37 |  |  |  |  | CN(C(=O)c1cccc(CN2Cc3cc(-c4ccc5[nH]ccc5c4)ccc3N=C2N)c1)C1CCCCC1 [Compound 175]
 |  |  |  | 38 | 97 | 123 | COC(=O)C1CCCC(N(C)C(=O)CCC(C2CCCCC2)N2Cc3cc(Oc4ccccc4)ccc3N=C2N)C1 (mixture of isomers) [Compound 777]
<30 | <30 | 32 |  |  |  |  | CC(C)N(C(=O)CCN1Cc2cc(Oc3ccccc3)ccc2N=C1N)C(C)C [Compound 181]
 |  |  |  | 41 | 74 | 104 | COC(=O)[C@H]1CC[C@H](NC(=O)CC[C@@H](C2CCOCC2)N2Cc3cc(Oc4ccccc4)ccc3N=C2N)CC1 [Compound 747]
<30 | <30 | <30 |  |  |  |  | NC1=Nc2ccc(-c3ccncc3)cc2CN1CCNC(=O)C1CCCCC1 [Compound 576]
<30 | <30 | <30 |  |  |  |  | CCCCC(CC)CN(CC(CC)CCCC)C(=O)c1cccc(CN2Cc3cc(Oc4ccccc4)ccc3N=C2N)c1 (stereo not drawn) [Compound 198]
43 | 106 | 118 |  |  |  |  | Cc1cccc(Sc2ccc3c(c2)CN(Cc2cccc(C(=O)N(C)C4CCCCC4)c2)C(N)=N3)c1 [Compound 405]
39 | 74 | 104 |  |  |  |  | CCCCC(CC)C(=O)NCCN1Cc2cc(-c3ccccc3F)ccc2N=C1N (stereo not drawn) [Compound 648]
 |  |  |  | 64 | 86 | 102 | CC(CC(=O)NCCN1Cc2cc(-c3ccccc3Cl)ccc2N=C1N)C(F)(F)F (stereo not drawn) [Compound 683]
<30 | <30 | 68 |  |  |  |  | CC1CCN(C(=O)CCCC(CCC(=O)N2CCC(C)CC2)N2Cc3cc(Oc4ccccc4)ccc3N=C2N)CC1 (stereo not drawn) [Compound 532]
−31 | <30 | <30 |  |  |  |  | CCc1ccccc1-c1ccc2c(c1)CN(Cc1cccc(C(=O)N(C)C3CCCCC3)c1)C(N)=N2 [Compound 320]
 |  |  |  | <30 | 30 | <30 | NC1=Nc2ccc(-c3cnc4ccccc4c3)cc2CN1CCNC(=O)C1CCCC1 [Compound 671]
 |  |  |  | 78 | 99 | 103 | Cc1ccccc1-c1ccc2c(c1)CN(CCNC(=O)CC(C)C(F)(F)F)C(N)=N2 (stereo not drawn) [Compound 679]
<30 | 37 | 49 |  |  |  |  | CN(C(=O)c1cccc(CN2Cc3cc(Oc4cccc(Oc5ccccc5)c4)ccc3N=C2N)c1)C1CCCCC1 [Compound 236]
<30 | <30 | <30 |  |  |  |  | CCCCCOc1ccc2c(c1)CN(Cc1cccc(C(=O)N(C)C3CCCCC3)c1)C(N)=N2 [Compound 516]
<30 | <30 | 31 |  |  |  |  | CC(C)c1ccccc1Oc1ccc2c(c1)CN(C(CC(=O)NC1CCCCC1)C1CCCCC1)C(N)=N2 (stereo not drawn) [Compound 313]
